Structures can show the parent of a compound that is named as a salt.
Tests used:
[1] = molecular target: T1, serotonine (5-HT) reuptake in synaptosomes (Rattus norvegicus, UniProt P31652); experiment: Inhibition of 5-HT reuptake in synaptosomes; assay type: biochemical; conditions: 3H-5-HT, read-out: 5-HT-uptake IC50
T1 construct: in synaptosomes as described in WO 97/16451; from tissue
Procedure: (§1) Compounds were tested for their ability to inhibit the reuptake of the monoamine neurotransmitters dopamine (DA) noradrenaline (NA) and serotonine (5-HT) in synaptosomes as described in WO 97/16451 (NeuroSearch A/S).
(§2) The test values are given as IC50 (the concentration (μM) of the test substance which inhibits the specific binding of ^3H-DA, ^3H-NA, or ^3H-5-HT by 50%).

[2] = molecular target: T2, dopamine (DA) reuptake in synaptosomes (Rattus norvegicus, UniProt P23977); experiment: Inhibition of DA reuptake in synaptosomes; assay type: biochemical; conditions: 3H-DA, read-out: DA-uptake IC50
T2 construct: in synaptosomes as described in WO 97/16451; from tissue
Procedure: as §1, §2

[3] = molecular target: T3, noradrenaline (NA) reuptake in synaptosomes (Rattus norvegicus, UniProt Q63380); experiment: Inhibition of NA reuptake in synaptosomes; assay type: biochemical; conditions: 3H-NA, read-out: NA-uptake IC50
T3 construct: in synaptosomes as described in WO 97/16451; from tissue
Procedure: as §1, §2

T3 sequence (Q63380 1-617): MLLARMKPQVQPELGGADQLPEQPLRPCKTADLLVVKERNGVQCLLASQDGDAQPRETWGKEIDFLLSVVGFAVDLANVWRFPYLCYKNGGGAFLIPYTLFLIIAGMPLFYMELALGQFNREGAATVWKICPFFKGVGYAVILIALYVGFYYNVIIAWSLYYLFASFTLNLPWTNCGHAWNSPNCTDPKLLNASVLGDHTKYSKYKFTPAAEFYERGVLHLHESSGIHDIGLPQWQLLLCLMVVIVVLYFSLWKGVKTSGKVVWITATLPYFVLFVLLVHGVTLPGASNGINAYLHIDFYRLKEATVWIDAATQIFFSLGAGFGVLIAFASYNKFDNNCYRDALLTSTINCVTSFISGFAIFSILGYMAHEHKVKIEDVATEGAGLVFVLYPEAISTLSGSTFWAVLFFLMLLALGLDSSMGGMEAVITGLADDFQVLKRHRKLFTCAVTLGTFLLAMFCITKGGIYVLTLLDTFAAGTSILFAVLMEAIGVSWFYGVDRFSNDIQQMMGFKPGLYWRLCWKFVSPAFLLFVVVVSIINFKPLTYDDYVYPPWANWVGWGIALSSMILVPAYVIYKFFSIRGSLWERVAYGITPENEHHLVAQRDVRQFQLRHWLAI
T2 sequence (P23977 whole entry): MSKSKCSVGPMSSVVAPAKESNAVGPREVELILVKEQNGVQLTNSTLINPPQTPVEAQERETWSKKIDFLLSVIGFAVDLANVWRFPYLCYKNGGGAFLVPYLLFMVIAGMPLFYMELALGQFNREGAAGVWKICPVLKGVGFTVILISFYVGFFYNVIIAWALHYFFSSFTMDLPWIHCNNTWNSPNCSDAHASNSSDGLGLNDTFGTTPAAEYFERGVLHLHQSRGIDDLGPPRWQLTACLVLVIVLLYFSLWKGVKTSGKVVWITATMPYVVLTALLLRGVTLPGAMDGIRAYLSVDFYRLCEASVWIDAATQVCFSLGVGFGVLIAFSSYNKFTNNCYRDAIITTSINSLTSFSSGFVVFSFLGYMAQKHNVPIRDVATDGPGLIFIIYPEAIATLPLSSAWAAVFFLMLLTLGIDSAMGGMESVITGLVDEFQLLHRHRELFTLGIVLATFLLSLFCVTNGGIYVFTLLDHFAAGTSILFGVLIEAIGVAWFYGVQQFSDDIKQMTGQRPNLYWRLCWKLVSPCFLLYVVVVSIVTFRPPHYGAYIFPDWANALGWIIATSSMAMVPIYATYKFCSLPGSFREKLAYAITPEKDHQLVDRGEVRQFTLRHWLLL
T1 sequence (P31652 whole entry): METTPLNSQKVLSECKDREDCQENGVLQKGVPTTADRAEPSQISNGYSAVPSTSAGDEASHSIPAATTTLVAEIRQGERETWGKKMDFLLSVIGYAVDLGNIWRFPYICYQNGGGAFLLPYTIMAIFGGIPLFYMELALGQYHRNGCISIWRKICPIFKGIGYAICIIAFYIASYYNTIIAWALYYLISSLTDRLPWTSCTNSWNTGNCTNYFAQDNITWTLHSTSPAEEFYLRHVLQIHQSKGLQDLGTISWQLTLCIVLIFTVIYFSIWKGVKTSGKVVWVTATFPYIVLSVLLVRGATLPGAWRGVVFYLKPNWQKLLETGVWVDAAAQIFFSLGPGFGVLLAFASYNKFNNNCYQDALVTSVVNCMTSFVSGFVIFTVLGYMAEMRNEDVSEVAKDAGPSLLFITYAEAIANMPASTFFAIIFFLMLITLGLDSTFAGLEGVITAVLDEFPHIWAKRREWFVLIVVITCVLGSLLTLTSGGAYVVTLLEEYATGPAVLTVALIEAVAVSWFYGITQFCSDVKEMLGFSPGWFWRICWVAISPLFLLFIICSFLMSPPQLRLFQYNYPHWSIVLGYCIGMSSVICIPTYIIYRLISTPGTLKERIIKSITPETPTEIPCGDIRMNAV

Row | Compound | IC50 [1] [nM] | IC50 [2] [nM] | IC50 [3] [nM] | melting point [°C]
1 | CC1(C)CC(OC(c2ccc(F)cc2)c2ccc(F)cc2)CC(C)(C)N1 [4-[Bis-(4-fluoro-phenyl)-methoxy]-2,2,6,6-tetramethyl-piperidine] | > 1000 | 38 | 590 | 
2 | CC1(C)CC(OC(c2ccccc2)c2ccccc2)CC(C)(C)N1 [4-Benzhydryloxy-2,2,6,6-tetramethyl-piperidine] | 26000 | 400 | 60 | 
3 | CC1(C)CC(OC(c2ccccc2)c2ccccc2)CC(C)(C)N1 (as salt: hydrochloric acid salt) [4-Benzhydryloxy-2,2,6,6-tetramethyl-piperidine] |  |  |  | 184.1 to 185.9
4 | CC1(C)CC(OC(c2ccc(F)cc2)c2ccc(F)cc2)CC(C)(C)N1 (as salt: hydrochloric acid salt) [4-[Bis-(4-fluoro-phenyl)-methoxy]-2,2,6,6-tetramethyl-piperidine] |  |  |  | 242 to 265

From US20110053984A1, “NOVEL 4-BENZHYDRYLOXY-TETRAALKYL-PIPERIDINE DERIVATIVES AND THEIR USE AS MONOAMINE NEUROTRANSMITTER RE-UPTAKE INHIBITORS” (NeuroSearch A/S, priority 2008, published 2011)
